Measurements reported in patent US12668600B2 (Kumquat Biosciences Inc., priority 2023, dated 2026).
pIC50: −log10 of the molar value.

Experiments:
Format in all cases: biochemical
[1] = target: T1, KRAS G12V (Homo sapiens, UniProt P01116, G12V); test: HTRF KRAS-SOS1 interaction assay, KRAS G12V; settings: binned ≤2 μM / >2 μM, read-out: Inhibition of KRAS G12V (IC50)
T1 construct: made in house; host or cells: E. coli, e.g. BL21 (DE3)
Procedure, shortened: (§1)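 GST-KRAS + anti-GST-Eu; His-hSOS1 + anti-6His-XL665; cpd in DMSO, duplicate, 10–0.01 μM; ~10 min incubation; HTRF ex 337/em 620, 665 nm; IC50 fitted on 665/620 ratio.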

[2] = target: T2, KRAS G12D (Homo sapiens, UniProt P01116, G12D); test: HTRF KRAS-SOS1 interaction assay, KRAS G12D; settings: binned ≤2 μM / >2 μM, read-out: Inhibition of KRAS G12D (IC50)
T2 construct: made in house; host or cells: E. coli, e.g. BL21 (DE3)
T2 sequence (P01116 1-188 isoform P01116-2 G12D): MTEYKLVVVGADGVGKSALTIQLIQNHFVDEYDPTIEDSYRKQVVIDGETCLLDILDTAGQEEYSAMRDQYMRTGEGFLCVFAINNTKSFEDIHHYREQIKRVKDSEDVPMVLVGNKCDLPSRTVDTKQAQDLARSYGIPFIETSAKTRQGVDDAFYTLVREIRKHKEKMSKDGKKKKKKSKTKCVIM
Procedure, shortened: as §1

[3] = target: T3, KRAS WT (Homo sapiens, UniProt P01116); test: HTRF KRAS-SOS1 interaction assay, wildtype KRAS; settings: binned ≤2 μM / >2 μM, read-out: Inhibition of KRAS WT (IC50)
T3 construct: made in house; host or cells: E. coli, e.g. BL21 (DE3)
T3 sequence (P01116 1-188 isoform P01116-2): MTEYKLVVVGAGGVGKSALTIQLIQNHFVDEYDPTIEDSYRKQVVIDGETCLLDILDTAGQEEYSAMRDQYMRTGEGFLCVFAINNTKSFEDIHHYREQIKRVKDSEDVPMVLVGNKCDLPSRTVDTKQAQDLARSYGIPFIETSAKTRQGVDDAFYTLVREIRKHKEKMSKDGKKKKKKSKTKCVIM
Procedure, shortened: as §1

[4] = target: T4, KRAS G12S (Homo sapiens, UniProt P01116, G12S); test: HTRF KRAS-SOS1 interaction assay, KRAS G12S; settings: binned ≤2 μM / >2 μM, read-out: Inhibition of KRAS G12S (IC50)
T4 construct: made in house; host or cells: E. coli, e.g. BL21 (DE3)
T4 sequence (P01116 1-188 isoform P01116-2 G12S): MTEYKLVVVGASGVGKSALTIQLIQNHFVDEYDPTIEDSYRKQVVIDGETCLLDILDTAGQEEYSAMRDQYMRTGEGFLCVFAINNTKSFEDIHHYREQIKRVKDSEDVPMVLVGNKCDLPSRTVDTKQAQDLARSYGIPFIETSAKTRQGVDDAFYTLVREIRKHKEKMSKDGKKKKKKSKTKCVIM
Procedure, shortened: as §1

Measured: pIC50

T1 sequence (P01116 1-188 isoform P01116-2 G12V): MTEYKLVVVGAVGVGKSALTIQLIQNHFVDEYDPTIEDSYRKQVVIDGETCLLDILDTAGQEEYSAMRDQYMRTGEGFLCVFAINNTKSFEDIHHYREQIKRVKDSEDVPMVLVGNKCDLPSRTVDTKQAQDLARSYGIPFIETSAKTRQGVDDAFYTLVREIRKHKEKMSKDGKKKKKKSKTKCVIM

COC[C@H](c1cccnc1N)N1CCOc2c(C(F)(F)F)c(-c3ccc(F)c4sc(N)c(C#N)c34)c(F)c3nc(OC[C@@]45CCCN4C[C@H](F)C5)nc1c23 [Compound 684, 2-amino-4-(4-((S)-1-(2-aminopyridin-3-yl)-2-methoxyethyl)-10-fluoro-2-(((2R,7aS)-2-fluorotetrahydro-1H-pyrrolizin-7a(5H)-yl)methoxy)-8-(trifluoromethyl)-5,6-dihydro-4H-[1,4]oxazepino[5,6,7-de]quinazolin-9-yl)-7-fluorobenzo[b]thiophene-3-carbonitrile]
≥ 5.70: all assays above

C=C1CN2CCC[C@@]2(COc2nc3c4c(c(C(F)(F)F)c(-c5ccc(F)c6sc(N)c(C#N)c56)c(F)c4n2)OCCN3[C@H](C)c2cc(Cl)cnc2N)C1 [Compound 690, 2-amino-4-(4-((R)-1-(2-amino-5-chloropyridin-3-yl)ethyl)-10-fluoro-2-(((S)-2-methylenetetrahydro-1H-pyrrolizin-7a(5H)-yl)methoxy)-8-(trifluoromethyl)-5,6-dihydro-4H-[1,4]oxazepino[5,6,7-de]quinazolin-9-yl)-7-fluorobenzo[b]thiophene-3-carbonitrile]
≥ 5.70: all assays above

C=C(F)[C@H](c1cccnc1N)N1CCOc2c(Cl)c(-c3ccc(F)c4sc(N)c(C#N)c34)c(F)c3nc(OC[C@@]45CCCN4C[C@H](F)C5)nc1c23 [Compound 694, 2-amino-4-(4-((S)-1-(2-aminopyridin-3-yl)-2-fluoroallyl)-8-chloro-10-fluoro-2-(((2R,7aS)-2-fluorotetrahydro-1H-pyrrolizin-7a(5H)-yl)methoxy)-5,6-dihydro-4H-[1,4]oxazepino[5,6,7-de]quinazolin-9-yl)-7-fluorobenzo[b]thiophene-3-carbonitrile]
≥ 5.70: all assays above

C[C@H](c1cccnc1N)N1CCOc2c(C(F)(F)F)c(-c3ccc(F)c4sc(N)c(C#N)c34)c(F)c3nc(OCC4(CN5CC[C@@H](F)C5)CC4)nc1c23 [Compound 698, 2-amino-4-(4-((R)-1-(2-aminopyridin-3-yl)ethyl)-10-fluoro-2-((1-(((R)-3-fluoropyrrolidin-1-yl)methyl)cyclopropyl)methoxy)-8-(trifluoromethyl)-5,6-dihydro-4H-[1,4]oxazepino[5,6,7-de]quinazolin-9-yl)-7-fluorobenzo[b]thiophene-3-carbonitrile]
≥ 5.70: all assays above

COc1ccc([C@@H](C)N2CCOc3c(Cl)c(-c4ccc(F)c5sc(N)c(C#N)c45)c(F)c4nc(OC[C@@]56CCCN5C[C@H](F)C6)nc2c34)c(N)n1 [Compound 706, 2-amino-4-(4-((R)-1-(2-amino-6-methoxypyridin-3-yl)ethyl)-8-chloro-10-fluoro-2-(((2R,7aS)-2-fluorotetrahydro-1H-pyrrolizin-7a(5H)-yl)methoxy)-5,6-dihydro-4H-[1,4]oxazepino[5,6,7-de]quinazolin-9-yl)-7-fluorobenzo[b]thiophene-3-carbonitrile]
≥ 5.70: all assays above
